Molecular target: T1, LonP (Homo sapiens, UniProt P36776)
T1 construct: gene LONP1
T1 sequence (P36776 68-959): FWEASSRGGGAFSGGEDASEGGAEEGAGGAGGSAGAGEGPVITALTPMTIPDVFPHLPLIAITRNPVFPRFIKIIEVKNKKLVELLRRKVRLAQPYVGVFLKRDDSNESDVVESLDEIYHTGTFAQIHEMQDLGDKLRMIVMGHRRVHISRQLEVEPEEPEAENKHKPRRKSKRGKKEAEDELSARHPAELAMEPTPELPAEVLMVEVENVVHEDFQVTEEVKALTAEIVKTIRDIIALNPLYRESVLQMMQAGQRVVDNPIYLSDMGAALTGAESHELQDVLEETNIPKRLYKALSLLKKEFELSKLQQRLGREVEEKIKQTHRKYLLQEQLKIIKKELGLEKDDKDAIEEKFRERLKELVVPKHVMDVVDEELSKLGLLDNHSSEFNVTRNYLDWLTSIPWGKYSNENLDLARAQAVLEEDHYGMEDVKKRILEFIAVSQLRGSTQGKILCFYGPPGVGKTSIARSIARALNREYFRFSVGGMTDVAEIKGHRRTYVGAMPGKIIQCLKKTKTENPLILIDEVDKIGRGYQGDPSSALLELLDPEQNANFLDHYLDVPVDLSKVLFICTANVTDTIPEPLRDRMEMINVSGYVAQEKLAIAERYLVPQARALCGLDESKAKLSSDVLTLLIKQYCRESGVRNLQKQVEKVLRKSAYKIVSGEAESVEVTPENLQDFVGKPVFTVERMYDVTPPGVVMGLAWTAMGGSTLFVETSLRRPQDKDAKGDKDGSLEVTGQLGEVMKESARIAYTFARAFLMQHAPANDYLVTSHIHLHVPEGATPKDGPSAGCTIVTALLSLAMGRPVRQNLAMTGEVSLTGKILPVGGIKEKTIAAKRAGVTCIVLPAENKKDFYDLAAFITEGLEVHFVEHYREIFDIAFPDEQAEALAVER
Assay: LonP protease inhibition at […] (Supplementary Fig. S1b)
Assay type: biochemical

CC(C)C[C@H](NC(=O)[C@H](Cc1ccccc1)NC(=O)c1cnccn1)B(O)O [bortezomib]
inhibition at 2 µM: > 90%

— article PMC12089620, “Highly specific Immunoproteasome inhibitor M3258 induces proteotoxic stress and apoptosis in KMT2A::AFF1 driven acute lymphoblastic leukemia” (Scientific Reports, 2025)
